This is an account of results in patent publication US7659270B2, “Hepatitis C virus inhibitors” (Bristol-Myers Squibb Company, priority 2006, dated 2010).

pEC50: −log10 of the molar value. Where two headings read alike, the source gives them in different places.

In this test the test system is HCV 1b-377-neo replicon cells. In words: HCV replicon assay (HCV 1b-377-neo replicon cells). In kind it is cell-based, Hepatitis C virus genotype 1b. The following applies: read-out: EC50 range against HCV 1b (Range). An outline of the steps:
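HCV genotype 1b (1b-377-neo) replicon cells, run as a validated replicon assay; parallel testing in replicon cells carrying the NS5A Y2065H resistance mutation.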

For the molecule `C[C@H](NC(=O)[C@@H](c1ccccc1)N(C)C)c1ncc(-c2cnc(-c3ccc(-c4cnc([C@@H]5CCCN5C(=O)[C@@H](c5ccccc5)N(C)C)[nH]4)cc3)nc2)[nH]1` [Example 152j-16, (2R)-2-(dimethylamino)-N-((1S)-1-(5-(2-(4-(2-((2S)-1-((2R)-2-(dimethylamino)-2-phenylacetyl)-2-pyrrolidinyl)-1H-imidazol-5-yl)phenyl)-5-pyrimidinyl)-1H-imidazol-2-yl)ethyl)-2-phenylacetamide], the pEC50 (Hepatitis C virus) is 9.00 to 11.00.

Take `COC(=O)N[C@H](C(=O)N1CCC[C@H]1c1ncc(-c2ccc(-c3ccc(-c4cnc([C@@H]5CCCN5C(=O)[C@@H](NC(=O)OC)C(C)C)[nH]4)cc3CN(C)C)cc2)[nH]1)C(C)C` [Example M120, methyl((1S)-1-(((2S)-2-(5-(2-((dimethylamino)methyl)-4′-(2-((2S)-1-((2S)-2-((methoxycarbonyl)amino)-3-methylbutanoyl)-2-pyrrolidinyl)-1H-imidazol-5-yl)-4-biphenylyl)-1H-imidazol-2-yl)-1-pyrrolidinyl)carbonyl)-2-methylpropyl)carbamate]: the pEC50 (Hepatitis C virus) was 6.00 to 7.00.

As for `COC(=O)N[C@H](C(=O)N1CCC[C@H]1c1ncc(-c2ccc(-c3ccc(-c4cnc([C@@H]5CCCN5C(=O)[C@@H](Nc5ncccn5)C(C)C)[nH]4)cc3)cc2)[nH]1)C(C)C` [cj-11, methyl((1S)-2-methyl-1-(((2S)-2-(5-(4′-(2-((2S)-1-(N-2-pyrimidinyl-L-valyl)-2-pyrrolidinyl)-1H-imidazol-5-yl)-4-biphenylyl)-1H-imidazol-2-yl)-1-pyrrolidinyl)carbonyl)propyl)carbamate], the pEC50 (Hepatitis C virus) is 9.00 to 11.00.

As to `COC(=O)N[C@@H](C(=O)N[C@@H](C)c1ncc(-c2ccc(-c3ccc(-c4cnc([C@H](C)NC(=O)[C@H](NC(=O)OC)c5ccccc5)[nH]4)cn3)nc2)[nH]1)c1ccccc1` [Example 153c-7, dimethyl (2,2′-bipyridine-5,5′-diylbis (1H-imidazole-5,2-diyl (1S)-1,1-ethanediyl-imino((1R)-2-oxo-1-phenyl-2,1-ethane-diyl)))biscarba-mate], the pEC50 (Hepatitis C virus) was 7.00 to 9.00.

In the case of `C[C@H](NC(=O)[C@@H](c1ccccc1)N(C)C)c1ncc(-c2ccc(-c3ccc(-c4cnc([C@@H]5CCCN5C(=O)[C@@H](c5ccccc5)N(C)C)[nH]4)cn3)cc2)[nH]1` [Example 152j-11, (2R)-2-(dimethylamino)-N-((1S)-1-(5-(4-(5-(2-((2S)-1-((2R)-2-(dimethylamino)-2-phenylacetyl)-2-pyrrolidinyl)-1H-imidazol-5-yl)-2-pyridinyl)phenyl)-1H-imidazol-2-yl)ethyl)-2-phenylacetamide], the pEC50 (Hepatitis C virus) was 9.00 to 11.00.

Turning to `COC(=O)N[C@H](C(=O)N1CCC[C@H]1c1nc(-c2cnc(-c3ccc(-c4cnc([C@@H]5CCCN5C(=O)[C@@H](NC(=O)OC)[C@@H](C)OC)[nH]4)c(F)c3)nc2)c[nH]1)[C@@H](C)OC` [Example D70, methyl ((1S,2R)-1-(((2S)-2-(5-(2-fluoro-4-(5-(2-((2S)-1-(N-(methoxy-carbonyl)-O-methyl-L-threonyl)-2-pyrroli-dinyl)-1H-imida-zol-5-yl)-2-pyrimidi-nyl)phenyl)-1H-imida-zol-2-yl)-1-pyrroli-dinyl)carbo-nyl)-2-methoxy-propyl)carba-mate], the pEC50 (Hepatitis C virus) was 9.00 to 11.00.

As to `C[C@@H](c1ncc(-c2ccc(-c3ncc(-c4cnc([C@@H]5CCCN5C(=O)[C@@H](c5ccccc5)N(C)C)[nH]4)cn3)cc2)[nH]1)N(C)C(=O)[C@@H](c1ccccc1)N(C)C` [Example 152j-20, (2R)-2-(dimethylamino)-N-((1S)-1-(5-(4-(5-(2-((2S)-1-((2R)-2-(dimethylamino)-2-phenylacetyl)-2-pyrrolidinyl)-1H-imidazol-5-yl)-2-pyrimidinyl)phenyl)-1H-imidazol-2-yl)ethyl)-N-methyl-2-phenylacetamide], the pEC50 (Hepatitis C virus) was 7.00 to 9.00.

Turning to `CNCC(=O)N1CCC[C@H]1c1ncc(-c2ccc(-c3ccc(-c4cnc([C@@H]5CCCN5C(=O)[C@@H](NC(=O)OC)C(C)C)[nH]4)cc3)cc2)[nH]1` [LS20], the pEC50 was 9.00 to 11.00.

In the case of `COC(=O)N[C@@H](C(=O)N1CCC[C@H]1c1nc(-c2cnc(-c3ccc(-c4cnc([C@@H]5CCCN5C(=O)[C@H](NC(=O)OC)c5ccccc5)[nH]4)c(F)c3)nc2)c[nH]1)c1ccccc1` [Example D69, methyl ((1R)-2-((2S)-2-(5-(2-(3-fluoro-4-(2-((2S)-1-((2R)-2-((methoxy-carbonyl)a-mino)-2-phenyl-acetyl)-2-pyrroli-dinyl)-1H-imidazol-5-yl)phenyl)-5-pyrimi-dinyl)-1H-imida-zol-2-yl)-1-pyrrolidinyl)-2-oxo-1-phenyl-eth-yl)carbamate], the pEC50 (Hepatitis C virus) is 9.00 to 11.00.

`CN(C)[C@@H](C(=O)N1CCC[C@H]1c1ncc(-c2ccc(-c3ccc(-c4cnc([C@@H]5CCCN5C(=O)[C@@H](c5ccccc5)N(C)C)[nH]4)cc3)cc2)[nH]1)c1ccccc1` [Example 1, (1R,1′R)-2,2′-(4,4′-biphenyldiylbis(1H-imidazole-5,2-diyl(2S)-2,1-pyrrolidinediyl))bis(N,N-dimethyl-2-oxo-1-phenylethanamine)]: under “Hepatitis C virus”, the pEC50 is 9.00 to 11.00.

Consider `COC(=O)N[C@@H](C(=O)N1CCC[C@H]1c1ncc(-c2ccc(-c3ccc(-c4cnc([C@@H]5CCCN5C(=O)[C@H]5CCCO5)[nH]4)cn3)cc2)[nH]1)c1ccccc1` [Example 141, methyl ((1R)-2-oxo-1-phenyl-2-((2S)-2-(5-(4-(5-(2-((2S)-1-((2R)-tetrahydro-2-furanylcarbonyl)-2-pyrrolidinyl)-1H-imidazol-5-yl)-2-pyridinyl)phenyl)-1H-imidazol-2-yl)-1-pyrrolidinyl)ethyl)carbamate], for which the pEC50 (Hepatitis C virus) was 9.00 to 11.00.

Regarding `CN(C)[C@@H](C(=O)N1CCC[C@H]1c1ncc(-c2ccc(-c3ccc(-c4cnc([C@@H]5CCCN5C(=O)[C@@H](c5ccccc5)N(C)C)[nH]4)nn3)nn2)[nH]1)c1ccccc1` [Example 153c-1], under “Hepatitis C virus”, the pEC50 is 7.00 to 9.00.

In the case of `CC(=O)N[C@@H](C(=O)N1CCC[C@H]1c1ncc(-c2ccc(-c3ccc(-c4cnc([C@@H]5CCCN5C(=O)[C@H](NC(C)=O)c5ccccc5)[nH]4)cn3)cc2)[nH]1)c1ccccc1` [Example 139, N-((1R)-2-((2S)-2-(5-(6-(4-(2-((2S)-1-((2R)-2-acetamido-2-phenylacetyl)-2-pyrrolidinyl)-1H-imidazol-5-yl)phenyl)-3-pyridinyl)-1H-imidazol-2-yl)-1-pyrrolidinyl)-2-oxo-1-phenylethyl)acetamide], the pEC50 (Hepatitis C virus) was 9.00 to 11.00.

On to `COC(=O)N[C@@H](C(=O)N[C@@H](C)c1ncc(-c2ccc(-c3ccc(-c4cnc([C@H](C)NC(=O)[C@H](NC(=O)OC)c5ccccc5)[nH]4)cn3)cc2)[nH]1)c1ccccc1` [Example 152j-23], for which, under “Hepatitis C virus”, the pEC50 is 9.00 to 11.00.

With `COC(=O)N[C@H](C(=O)N1CCC[C@H]1c1ncc(-c2cnc(-c3ccc(-c4[nH]c([C@@H]5CCCN5C(=O)[C@@H](NC(=O)OC)C5CC5)nc4C(F)(F)F)cc3)nc2)[nH]1)C1CC1` [Example J49, methyl ((1S)-1-cyclopropyl-2-((2S)-2-(5-(4-(5-(2-((2S)-1-((2S)-2-cyclopropyl-2-((methoxy-carbonyl)amino)acetyl)-2-pyrrolidinyl)-1H-imidazol-5-yl)-2-pyrimi-dinyl)phenyl)-4-(trifluoromethyl)-1H-imida-zol-2-yl)-1-pyrrolidinyl)-2-oxoeth-yl)carbamate], under “Hepatitis C virus”, the pEC50 is 9.00 to 11.00.

Regarding `COC(=O)N[C@@H](C(=O)N1CCC[C@H]1c1ncc(-c2ccc(-c3ccc(-c4cnc([C@@H]5CCCN5C(=O)[C@H](NC(=O)OC)c5ccccc5)[nH]4)cc3CN(C)C)cc2)[nH]1)c1ccccc1` [Example M121, dimethyl((2-((dimethylamino)methyl)-4,4′-biphenyldiyl)bis(1H-imidazole-5,2-diyl(2S)-2,1-pyrrolidinediyl((1R)-2-oxo-1-phenyl-2,1-ethanediyl)))biscarbamate], the pEC50 (Hepatitis C virus) is 6.00 to 7.00.

For `COC(=O)N[C@@H](C(=O)N1CCC[C@H]1c1ncc(-c2ccc(-c3ccc(-c4cnc([C@@H]5CCCN5C(=O)[C@H](NC(=O)OC)c5ccccc5)[nH]4)cc3C)nc2)[nH]1)c1ccccc1` [Example 138, methyl((1R)-2-((2S)-2-(5-(6-(4-(2-((2S)-1-((2R)-2-((methoxycarbonyl)amino)-2-phenylacetyl)-2-pyrrolidinyl)-1H-imidazol-5-yl)-2-methylphenyl)-3-pyridinyl)-1H-imidazol-2-yl)-1-pyrrolidinyl)-2-oxo-1-phenylethyl)carbamate], the pEC50 (Hepatitis C virus) is 9.00 to 11.00.

As to `COC(=O)N[C@@H](C(=O)N[C@@H](C)c1ncc(-c2ccc(-c3ccc(-c4cnc([C@@H]5CCCN5C(=O)[C@H](NC(=O)OC)c5ccccc5)[nH]4)cc3)nc2)[nH]1)c1ccccc1` [Example 152j-22, methyl ((1R)-2-((2S)-2-(5-(4-(5-(2-((1S)-1-(((2R)-2-((methoxycarbonyl)a-mino)-2-phenyl-acetyl)amino)eth-yl)-1H-imidazol-5-yl)-2-pyridinyl)phenyl)-1H-imidazol-2-yl)-1-pyrrolidinyl)-2-oxo-1-phenylethyl)carbamate], the pEC50 (Hepatitis C virus) is 9.00 to 11.00.

Regarding `O=C([C@@H](c1ccccc1)N1CCCCC1)N1CCC[C@H]1c1ncc(-c2ccc(-c3ncc(-c4cnc([C@@H]5CCCN5C(=O)[C@@H](c5ccccc5)N5CCCCC5)[nH]4)cn3)cc2)[nH]1` [Example 152j-5, 5-(2-((2S)-1-((2R)-2-phenyl-2-(1-piperidinyl)acetyl)-2-pyrrolidinyl)-1H-imidazol-5-yl)-2-(4-(2-((2S)-1-((2R)-2-phenyl-2-(1-piperidinyl)acetyl)-2-pyrrolidinyl)-1H-imidazol-4-yl)phenyl)pyrimidine], the pEC50 (Hepatitis C virus) was 9.00 to 11.00.

With `C[C@@H](c1ncc(-c2ccc(-c3ccc(-c4cnc([C@H](C)N(C)C(=O)[C@@H](c5ccccc5)N(C)C)[nH]4)cc3)cc2)[nH]1)N(C)C(=O)[C@@H](c1ccccc1)N(C)C` [Example 24-18-2, (2R,2′R)-N,N′-(4,4′-biphenyl-diylbis(1H-imidazole-5,2-diyl(1S)-1,1-ethane-diyl))bis(2-(dimethyl-amino)-N-methyl-2-phenyl-acetamide)], the pEC50 (Hepatitis C virus) is 9.00 to 11.00.

For orientation: pEC50 means the EC50 on a negative log10 scale, so that one unit is a factor of ten.
